Measured values as given in patent publication US7528144B2, “Molecules and methods for fluorescence microscopy” (WiSys Technology Foundation, Inc., priority 2005, dated 2009).

Key:
mitochondria = assay: Colocalization with Mitotracker Red by fluorescence microscopy; format: cell-based
Description: (§1) A. LTI studies: Aliquots of THP-1 cells (Cell densities were 1×10^6 cells per mL) were exposed to either 100 nM InstantLyso LLT-1 in RPMI 1640 medium with 10% FCS at 37° C., 5% CO2, both InstantLyso LLT-1 and 100 nM Lysotracker Red (Molecular Probes, Eugene Oreg.), or both InstantLyso LLT-1 and at a concentration of 75 nM. Mitotracker Red (Molecular Probes). In each case, medium is first pipetted off cells, then warmed medium containing dyes is added. The cell suspension is incubated for 30 minutes at 37° C. and examined by microscopy.
(§2) B. InstantLipo Sep-1 studies: Aliquots of either THP-1 cells or adherent human fibroblasts were exposed to either 200 nM InstantLipo Sep-1in RPMI 1640 medium with 10% FCS at 37 C, 5% CO2, both InstantLipo Sep-1and Vybrant lipid raft kit (Molecular Probes, used according to the manufacturer's instructions), both InstantLipo Sep-1and Mitotracker Red (Molecular Probes, used according to the manufacturer's instructions), or both InstantLipo Sep-1and Lysotracker Red. Cells were incubated at 37° C. for at least 20 minutes. […] Some of the punctate structures moved rapidly when observed by confocal microscopy in living cells. Conditions for colocalization are as follows: Live THP-1 Leukemic monocytes were grown in RPMI 1640 medium at 37 C and 5% CO2 for 5 days. […]

THP-1 cells [1] = details: FIG. 24, concentration not given
cholesterol-rich domains = assay: Staining of fibroblasts treated with cholesterol transport inhibitor U18666A; format: cell-based, human; details: foreskin fibroblasts, 3 μg/mL U18666A overnight, 150 nM dye, 30 minutes
Description: Similarly, 3 μg/mL from H20 stock of aminoesterol U18666A (Calbiochem)) is often used with fibroblasts to inhibit intracellular cholesterol transport and leads to accumulation of cholesterol in nuclear regions (C. F. Roff, E. Goldin, M. E. Comly, A. Cooney, A. Brown, M. T. Vanier, S. P. Miller, R. O. Brady and P. G. Pentchev, Dev Neurosci 13 (1991) 315-9). Foreskin fibroblasts were grown on coverslips for 1 day in EMEM. Medium was removed and replaced with 2 mL fresh EMEM to ensure consistent treatment as cells that were treated with U18666A. Cells were incubated at 37° C. and 5% CO2 overnight. Medium was removed and replaced with 2 mL EMEM containing 200 nM InstantLipo Sep-1. Cells were then incubated at 37° C. and 5% CO2 for 30 minutes to allow dye to load. Cells were imaged using an epifluorescence microscope at 1000× magnification while excited with a purple cube.
Foreskin fibroblasts were grown on coverslips for 3 days in EMEM. Medium was removed and replaced with 2 mL EMEM containing 3μg/mL U18666A. Cells were incubated at 37° C. and 5% CO2 overnight. Medium was removed and replaced with 2 mL EMEM containing 150 nM InstantGolgi McN-1. Cells were then incubated at 37° C. and 5% CO2 for 30 minutes to allow dye to load. […] This is consistent with the staining of more numerous and pathological cholesterol-rich domains and vesicles. […]

lysosomes = assay: Colocalization with Lysotracker Red by fluorescence microscopy; format: cell-based; details: live THP-1 cells
Description: as §1
Colocalization of InstantLyso LLT-1 with Lysotracker red were performed under the following conditions: Live THP-1 Leukemic monocytes were grown in RPMI 1640 medium at 37C. and 5% CO2 for 5 days. 2 mL of cells were allowed to adhere to a Biocoat (polylysine coated) glass bottomed cell culture plate for 30 minutes at 37C. The old medium was removed and 2 mLs of 37 C fresh media containing 1 00 nM InstantLyso LLT-1 (from 10 μM DMSO stock) and 100 nM Lysotracker Red (from 1 mM DMSO stock) was added. Cells were incubated at 37C for 30 minutes. And visualized with an inverted epifluorescence microscope at 600× using a blue/purple (450/50 ex and 510/50 em with D480 mirror) cube for InstantLyso LLT-1 and a green (560/50 ex and 646/40 em with D595 mirror). Exposure was automatic. Temperature was ambient. […]

THP-1 cells [2] = assay: Staining pattern in live THP-1 cells; format: cell-based; details: THP-1 monocytic cells, 100 nM dye, 30 minutes
Description: as §1, §2

Structure (SMILES) | colocalization with mitochondria (MitoTracker Red) (mitochondria; live THP-1 cells, 150 nM dye + 50 nM MitoTracker Red) | cytotoxicity / viability (Trypan blue) (THP-1 cells [1]) | staining change after U18666A (cholesterol-rich domains) | colocalization with lysosomes (Lysotracker Red) (lysosomes; 150 nM dye + 75 nM Lysotracker Red) | co-localization with Mitotracker Red (mitochondria; THP-1 cells, 100 nM dye + 75 nM Mitotracker Red, 30 minutes) | co-localization with Lysotracker Red (lysosomes; 100 nM dye + 100 nM Lysotracker Red, 30 minutes) | staining pattern (THP-1 cells [2])
CCCCCCN1C(=O)c2cccc3c(NCCNS(=O)(=O)c4ccc(C)cc4)ccc(c23)C1=O [InstantGolgi McN-1, N-hexyl-4-[2-(4-toluensulfonyl)aminoethyl]amino-1,8-naphthalimide] | limited colocalization with lysosomes and mitochondria | no significant cytotoxicity | more punctate bright spots in cells after inhibition | limited colocalization with lysosomes and mitochondria | – | – | –
CCCCCCN1C(=O)c2cccc3c(NCCN)ccc(c23)C1=O [InstantLyso LLT-1, 6-(2-aminoethyl)amino-2-hexyl-1H-benz[de]isoquinoline-1,3-(2H)-dione] | – | – | – | – | failed to exhibit such co-localization | positive co-localization | staining in punctate structures
